Tests used:
[1] = molecular target: Zeta (DGK zeta) (Homo sapiens, UniProt Q13574); experiment: DGK isoform % Activity screen; format: biochemical; details: for activity at 1000 µM: read-out: 1 mM % Activity, Zeta
[2] = molecular target: Alpha (DGK alpha; only in reference sheet cells) (Rattus norvegicus, UniProt P51556); experiment: DGK isoform % Activity screen; format: biochemical; details: for activity at 100 µM: read-out: 100 uM % Activity (section without isoform head; Alpha); for activity at 1000 µM: read-out: 1 mM % Activity (section without isoform head; Alpha)
[3] = molecular target: Gamma (DGK gamma) (Homo sapiens, UniProt P49619); experiment: DGK isoform % Activity screen; format: biochemical; details: for activity at 1000 µM: read-out: 1 mM % Activity, Gamma
[4] = molecular target: T1, recombinant DGKα (Rattus norvegicus, UniProt P51556); experiment: Gel-based ATP acyl phosphate chemical proteomic assay; format: binding; details: compounds 100 μM (ATP 1 mM; RF001 at indicated concentrations), 30 min; probe 10 μM
T1 construct: expressed in transfected cells; host or cells: HEK293T (SILAC HEK293T for LC-MS)
Description: Cell pellets were resuspended in kinase buffer (Dulbecco's PBS (DPBS, Hyclone), 20 mM MgCl2, EDTA-free protease inhibitors (Pierce)) and then lysed by sonication (3×1 sec pulse, 20% amplitude). The cell lysates were then subjected to centrifugation (100,000×g, 45 min at 4° C.) to isolate the cytosolic fraction in the supernatant and the membrane fraction as a pellet. The membrane pellet was resuspended in kinase buffer by sonication. […] The only exception was experiments involving DGKE; recombinant DGKE protein was most prominently expressed in the membrane fraction and so this fraction was utilized to study DGKE enzyme (see FIG. 8). Protein concentrations were measured using the Bio-Rad DC protein assay. Samples were stored at −80° C. until use.
Proteome concentration was adjusted to 2 mg/mL in kinase buffer. Proteomes were first pre-treated with compound (0.6 μL, 50× stock in DMSO) mixed with gentle flicking, and incubated for 30 min at 25° C. in a microfuge tube (30 μL reaction volume). […] Reactions were then quenched with 10 AL of 4×SDS-PAGE loading buffer. Protein samples (15 μL) were loaded onto 4-20% TGX Stain-Free Protein Midi Gel and resolved by SDS-PAGE at 150V for 55 min. Proteins were then transferred to a nitrocellulose blot by Bio-Rad Trans-Blot Turbo Transfer System (25V. 10 min) to enhance sensitivity. The nitrocellulose blot was then incubated in blocking solution (30 mL, 3% BSA in TBS-T) for 1 h at 25° C. with gentle shaking. The blot was then transferred immediately to antibody solution (30 mL, 5% BSA in ddH2O with 0.1% Tween20 and 1:3000 Streptavidin DyLight 550) and incubated for 2 h at 25° C. with gentle shaking. The blot was then rinsed 5 times for 5 min in TBS-T. and then transferred into ddH2O. The blot was then imaged by in-blot fluorescence scanning on a ChemiDoc MP Imaging System. Fluorescence intensity signals were normalized to total lane protein using the Bio-rad Stain Free imaging (Posch et al., 2013).
The percentage of enzyme activity remaining was determined by comparing integrated band intensities or luminescence of inhibitor—with DMSO-treated samples for gel-based chemical proteomic or ADP-glo assays, respectively. For both chemical proteomic and ADP-glo methods, nonlinear regression analysis was used to determine the IC50 values from a dose-response curve generated using GraphPad Prism. Data are shown as mean±s.e.m. Determination of significance was performed by one-way ANOVA. All statistical analyses were performed using GraphPad Prism.

Zeta (DGK zeta), sequence (Q13574 whole entry, canonical isoform): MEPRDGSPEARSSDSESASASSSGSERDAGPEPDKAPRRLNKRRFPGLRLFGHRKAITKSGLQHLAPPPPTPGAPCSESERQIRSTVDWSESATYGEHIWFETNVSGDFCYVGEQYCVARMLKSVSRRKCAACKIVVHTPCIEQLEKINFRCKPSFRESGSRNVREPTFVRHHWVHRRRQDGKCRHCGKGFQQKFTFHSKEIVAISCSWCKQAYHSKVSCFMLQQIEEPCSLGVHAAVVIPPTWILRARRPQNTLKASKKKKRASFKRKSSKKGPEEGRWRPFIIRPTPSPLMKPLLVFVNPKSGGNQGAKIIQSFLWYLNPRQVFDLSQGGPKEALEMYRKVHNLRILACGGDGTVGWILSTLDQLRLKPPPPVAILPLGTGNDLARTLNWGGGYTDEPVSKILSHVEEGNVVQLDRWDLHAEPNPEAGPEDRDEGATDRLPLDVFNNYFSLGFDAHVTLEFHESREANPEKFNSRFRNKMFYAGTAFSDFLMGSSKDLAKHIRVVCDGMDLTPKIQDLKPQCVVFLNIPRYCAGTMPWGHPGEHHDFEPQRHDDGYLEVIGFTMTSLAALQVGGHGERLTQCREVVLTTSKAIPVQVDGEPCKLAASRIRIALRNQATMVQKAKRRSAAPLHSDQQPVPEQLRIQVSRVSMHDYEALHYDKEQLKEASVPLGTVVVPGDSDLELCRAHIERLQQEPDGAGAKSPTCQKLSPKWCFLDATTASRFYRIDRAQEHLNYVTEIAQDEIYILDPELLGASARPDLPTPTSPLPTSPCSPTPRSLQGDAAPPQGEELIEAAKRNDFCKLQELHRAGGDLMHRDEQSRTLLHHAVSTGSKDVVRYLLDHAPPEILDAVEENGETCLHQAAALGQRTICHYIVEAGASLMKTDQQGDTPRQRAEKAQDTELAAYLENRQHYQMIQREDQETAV
Gamma (DGK gamma), sequence (P49619 whole entry, canonical isoform): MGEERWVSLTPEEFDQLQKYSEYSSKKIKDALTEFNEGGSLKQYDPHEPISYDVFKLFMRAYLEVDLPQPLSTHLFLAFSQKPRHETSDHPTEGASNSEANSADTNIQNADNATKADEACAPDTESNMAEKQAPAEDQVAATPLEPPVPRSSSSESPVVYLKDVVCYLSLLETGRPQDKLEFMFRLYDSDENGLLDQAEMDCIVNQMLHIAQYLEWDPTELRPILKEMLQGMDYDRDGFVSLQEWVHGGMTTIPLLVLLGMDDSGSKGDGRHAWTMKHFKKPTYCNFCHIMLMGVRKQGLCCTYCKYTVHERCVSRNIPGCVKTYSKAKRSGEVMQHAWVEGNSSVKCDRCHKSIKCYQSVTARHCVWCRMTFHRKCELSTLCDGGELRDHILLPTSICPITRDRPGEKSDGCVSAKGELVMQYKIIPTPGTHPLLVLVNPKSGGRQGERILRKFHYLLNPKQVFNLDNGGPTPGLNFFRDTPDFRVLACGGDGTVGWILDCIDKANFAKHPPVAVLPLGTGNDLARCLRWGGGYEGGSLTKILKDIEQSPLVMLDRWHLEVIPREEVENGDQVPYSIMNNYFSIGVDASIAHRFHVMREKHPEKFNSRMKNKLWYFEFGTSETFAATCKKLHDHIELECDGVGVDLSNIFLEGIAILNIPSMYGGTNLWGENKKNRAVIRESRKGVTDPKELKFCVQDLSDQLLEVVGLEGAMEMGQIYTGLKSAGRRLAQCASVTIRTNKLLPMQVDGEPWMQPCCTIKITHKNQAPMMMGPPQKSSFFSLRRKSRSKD
Alpha (DGK alpha; only in reference sheet cells), sequence (P51556 whole entry, canonical isoform): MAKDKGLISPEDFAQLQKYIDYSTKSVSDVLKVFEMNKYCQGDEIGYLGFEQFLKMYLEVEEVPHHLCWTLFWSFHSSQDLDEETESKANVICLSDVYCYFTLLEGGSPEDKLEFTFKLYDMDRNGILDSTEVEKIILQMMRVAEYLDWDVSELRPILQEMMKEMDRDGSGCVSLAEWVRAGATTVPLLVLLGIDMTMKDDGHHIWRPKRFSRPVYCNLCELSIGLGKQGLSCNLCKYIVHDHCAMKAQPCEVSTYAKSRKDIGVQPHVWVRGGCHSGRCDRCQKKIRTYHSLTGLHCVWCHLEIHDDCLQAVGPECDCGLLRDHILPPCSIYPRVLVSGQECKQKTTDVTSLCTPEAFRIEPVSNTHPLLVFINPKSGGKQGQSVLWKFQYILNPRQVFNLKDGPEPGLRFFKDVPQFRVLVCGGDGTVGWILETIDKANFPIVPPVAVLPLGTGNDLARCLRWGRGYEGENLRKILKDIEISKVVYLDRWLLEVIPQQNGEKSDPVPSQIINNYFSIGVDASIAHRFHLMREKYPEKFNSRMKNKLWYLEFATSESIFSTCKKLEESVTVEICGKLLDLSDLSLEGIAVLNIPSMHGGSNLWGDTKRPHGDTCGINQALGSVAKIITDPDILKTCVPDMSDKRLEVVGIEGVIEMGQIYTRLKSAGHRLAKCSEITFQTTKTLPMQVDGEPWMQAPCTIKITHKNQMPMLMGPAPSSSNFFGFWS
T1 sequence (P51556 whole entry): as the sequence (P51556 whole entry, canonical isoform) above

`CN(C)CCOc1ccc(/C(=C(/CCCl)c2ccccc2)c2ccccc2)cc1` [TH005] showed an activity at 100 µM [1] of 86%, an activity at 1000 µM [1] of 0% and an activity at 100 µM [2] of 103%. For the same compound, the activity at 1000 µM [2] was 14%.
`COc1ccc(C(=C2CCNCC2)c2ccc(OC)cc2)cc1` [TH025] was tested, and the activity at 100 µM [1] was 103%, the activity at 1000 µM [1] was 0% and the activity at 100 µM [2] was 79%. It also gave an activity at 1000 µM [2] of 4.4%.
With `c1ccc(C(=C2CCNCC2)c2ccccc2)cc1` [TH011] the activity at 100 µM [1] was 96%, the activity at 1000 µM [1] was 0% and the activity at 100 µM [2] was 78%. The activity at 1000 µM [2] was 0%.
`Clc1ccc(C(=C2CCNCC2)c2ccc(Cl)cc2)cc1` [TH040] showed an activity at 100 µM [1] of 85%, an activity at 1000 µM [1] of 0% and an activity at 100 µM [3] of 101%. The activity at 1000 µM [3] was 5%, the activity at 100 µM [2] was 78% and the activity at 1000 µM [2] was 4%.
In the case of `OC(c1ccc(C(F)(F)F)cc1)(c1ccc(C(F)(F)F)cc1)C1CCNCC1` [TH039], the activity at 100 µM [1] is reported as 94%, the activity at 1000 µM [1] is reported as 1% and the activity at 100 µM [3] is reported as 91%. For the same compound, the activity at 1000 µM [3] was 1%, the activity at 100 µM [2] was 81% and the activity at 1000 µM [2] was 6%.
`Fc1ccc(C(c2ccc(F)cc2)N2CCN(Cc3ccc4ccccc4n3)CC2)cc1` [TH022] was tested, and the activity at 100 µM [1] was 135%, the activity at 1000 µM [1] was 193% and the activity at 100 µM [2] was 103%. It also gave an activity at 1000 µM [2] of 60%.
`Cc1ccc(C(=C2CCNCC2)c2ccc(C)cc2)cc1` [TH019] gave an activity at 100 µM [1] of 103%, an activity at 1000 µM [1] of 0% and an activity at 100 µM [2] of 92%. It also gave an activity at 1000 µM [2] of 1%.
`OCCN1CCN(C(c2ccc(F)cc2)c2ccc(F)cc2)CC1` [TH030] showed an activity at 100 µM [1] of 91%, an activity at 1000 µM [1] of 5% and an activity at 100 µM [2] of 103%. It also gave an activity at 1000 µM [2] of 36%.
`CS(=O)(=O)N1CCN(C(c2ccc(F)cc2)c2ccc(F)cc2)CC1` [TH036] showed an activity at 100 µM [1] of 108%, an activity at 1000 µM [1] of 105% and an activity at 100 µM [2] of 93%. It also gave an activity at 1000 µM [2] of 74%.
In the case of `OCCCN1CCN(C(c2ccc(F)cc2)c2ccc(F)cc2)CC1` [TH031], the activity at 100 µM [1] is reported as 105%, the activity at 1000 µM [1] is reported as 0% and the activity at 100 µM [2] is reported as 107%. The activity at 1000 µM [2] was 26%.
`Fc1ccc(C(=C2CCN(Cc3ccc4ccccc4n3)CC2)c2ccc(F)cc2)cc1` [TH029] was tested, and the activity at 100 µM [1] was 169%, the activity at 1000 µM [1] was 252% and the activity at 100 µM [2] was 125%. It also gave an activity at 1000 µM [2] of 73%.
Work on `CN1C2CCC1CC(OC(c1ccccc1)c1ccccc1)C2` (stereo not drawn) [TH004] yielded an activity at 100 µM [1] of 82% and an activity at 1000 µM [1] of 21%.
In the case of `CS(=O)(=O)N1CCC(=C(c2ccc(F)cc2)c2ccc(F)cc2)CC1` [TH035], the activity at 100 µM [1] is reported as 112%, the activity at 1000 µM [1] is reported as 100% and the activity at 100 µM [2] is reported as 88%. For the same compound, the activity at 1000 µM [2] was 40%.
In the case of `O=c1c2ccccc2[nH]c(=S)n1CCN1CCC(=C(c2ccc(F)cc2)c2ccc(F)cc2)CC1` [R59949], the “blockade of DGKα ATP probe labeling” value [4] is reported as “blocked DGKα probe labeling”.
Work on `Fc1ccc(C(=C2CCCN(Cc3ccccc3)C2)c2ccc(F)cc2)cc1` [TH014] yielded an activity at 100 µM [1] of 140%, an activity at 1000 µM [1] of 327% and an activity at 1000 µM [2] of 160%.
In the case of `Fc1ccc(C(c2ccc(F)cc2)N2CCNCC2)cc1` [TH001], the activity at 100 µM [1] is reported as 102%, the activity at 1000 µM [1] is reported as 0% and the activity at 100 µM [3] is reported as 99%. The activity at 1000 µM [3] was 0%, the activity at 100 µM [2] was 72% and the activity at 1000 µM [2] was 0%.
Compound `Fc1ccc(C(c2ccc(F)cc2)C2CCNCC2)cc1` [TH010] has an activity at 100 µM [1] of 96%, an activity at 1000 µM [1] of 30% and an activity at 1000 µM [2] of 64%.
Work on `Fc1ccc(C(c2ccc(F)cc2)N2CCN(CCCN3CCCC3)CC2)cc1` [TH032] yielded an activity at 100 µM [1] of 80%, an activity at 1000 µM [1] of 0% and an activity at 100 µM [2] of 94%. It also gave an activity at 1000 µM [2] of 8%.
For `Cc1nc2sccn2c(=O)c1CCN1CCC(=C(c2ccccc2)c2ccc(F)cc2)CC1` [R59022], the “blockade of DGKα ATP probe labeling” value [4] was “blocked DGKα probe labeling”.
`c1ccc(C(c2ccccc2)C2CCNCC2)cc1` [TH012] was tested, and the activity at 100 µM [1] was 99%, the activity at 1000 µM [1] was 15% and the activity at 1000 µM [2] was 41%.
`Fc1ccc(C(c2ccc(F)cc2)N2CCN(CCCN3CCN(C(c4ccc(F)cc4)c4ccc(F)cc4)CC3)CC2)cc1` [TH033] was tested, and the activity at 100 µM [1] was 82%, the activity at 100 µM [2] was 72% and the activity at 1000 µM [2] was 4%.
`CC(=O)N1CCN(C(c2ccc(F)cc2)c2ccc(F)cc2)CC1` [TH016] was tested, and the activity at 100 µM [1] was 98%, the activity at 1000 µM [1] was 108% and the activity at 1000 µM [2] was 139%.
`OC(c1ccc(F)cc1)(c1ccc(F)cc1)C1CCNCC1` [TH028] showed an activity at 100 µM [1] of 125%, an activity at 1000 µM [1] of 0% and an activity at 100 µM [2] of 96%. It also gave an activity at 1000 µM [2] of 0%.
Compound `c1ccc2c(c1)-c1ccccc1C2N1CCNCC1` [TH002] has an activity at 100 µM [1] of 98%, an activity at 1000 µM [1] of 0% and an activity at 100 µM [2] of 84%. It also gave an activity at 1000 µM [2] of 0%.
`Fc1ccc(C(c2ccc(F)cc2)N2CCN(C3CCNCC3)CC2)cc1` [TH024] gave an activity at 100 µM [1] of 72%, an activity at 1000 µM [1] of 0% and an activity at 100 µM [2] of 84%. The activity at 1000 µM [2] was 3%.

Reference: patent US12643867B2, “Compositions and uses thereof” (University of Virginia Patent Foundation, priority 2017, dated 2026)
